Measured values reported in patent US4722927A, “Pyrimidine amides of oleic or linoleic acid, composition containing them and their use as inhibitors of acyl-CoA cholesterol acyltransferase” (Warner-Lambert Company, priority 1986, dated 1988).

Target: T1, acyl-CoA:cholesterol acyltransferase (ACAT) (Oryctolagus cuniculus, UniProt G1SFD9)
T1 construct: a tissue preparation containing rabbit intestinal microsomes; from tissue; host or cells: rabbit intestinal microsomes
T1 sequence (G1SFD9 1-524): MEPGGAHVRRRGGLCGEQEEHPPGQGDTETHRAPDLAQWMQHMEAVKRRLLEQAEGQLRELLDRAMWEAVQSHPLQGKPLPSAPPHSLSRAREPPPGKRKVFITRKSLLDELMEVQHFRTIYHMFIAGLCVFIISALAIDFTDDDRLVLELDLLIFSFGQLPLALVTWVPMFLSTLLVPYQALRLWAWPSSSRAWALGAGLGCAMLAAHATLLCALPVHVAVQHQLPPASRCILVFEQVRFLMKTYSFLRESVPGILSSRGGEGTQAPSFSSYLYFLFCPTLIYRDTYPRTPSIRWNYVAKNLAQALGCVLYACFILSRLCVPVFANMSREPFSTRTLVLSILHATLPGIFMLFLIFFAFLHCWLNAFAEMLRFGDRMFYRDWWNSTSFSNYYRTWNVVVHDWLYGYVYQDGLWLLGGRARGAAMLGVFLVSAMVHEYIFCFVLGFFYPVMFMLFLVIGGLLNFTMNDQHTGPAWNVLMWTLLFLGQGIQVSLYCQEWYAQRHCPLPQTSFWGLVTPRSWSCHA
Test: In vitro inhibition of ACAT: radio-labeled cholesterol oleate formed from radio-labeled oleic acid in rabbit intestinal microsomes
Assay type: biochemical
Protocol: The ability of representative compounds of the present invention to inhibit ACAT was measured using an in vitro test more fully described in Field, F. J. and Salone, R. G., Biochemica et Biophysica 712: 557-570 (1982). The test assesses the ability of a test compound to inhibit the acylation of cholesterol by oleic acid by measuring the amount of radio-labeled cholesterol oleate formed from radio-labeled oleic acid in a tissue preparation containing rabbit intestinal microsomes.
The data appear in Table 1 where they are expressed as IC50 values; i.e. the concentration of test compound required to inhibit 50% […] of the enzyme.

SMILES | IC50
CCCCCCCC/C=C\CCCCCCCC(=O)Nc1c(OCC)ncnc1OCC [(Z)-N-(4,6-diethoxy-5-pyrimidinyl)-9-octadecenamide] | 530 nM
CCCCCCCC/C=C\CCCCCCCC(=O)Nc1c(OC)ncnc1OC [(Z)-N-(4,6-dimethoxy-5-pyrimidinyl)-9-octadecenamide] | 200 nM
